From patent US20200384072A1, “THERAPY OF IONIZING RADIATION-INDUCED DISORDERS” (SCK-CEN, priority 2019, published 2020)

Tests used:
Cx43 hemichannels [1] = target: T1, Cx43 hemichannels (Homo sapiens, UniProt P17302); experiment: Extracellular ATP release after irradiation, TICAE cells; type: cell-based
T1 construct: endogenous in cells; host or cells: TICAE and TIME cells (human endothelial cell lines)
Method: (§1) Hemichannels are an ATP release pathway and we therefore determined extracellular ATP after irradiation. To that purpose, TICAE and TIME cells were seeded in a 96-well plate at a density of 1×10^5 cells/well and 0.3×10^5 cells/well, respectively, in six to eight biological replicates. Three days later, cells reached 100% confluence. At 30 minutes before irradiation, cells were refreshed with 100 μl medium alone or with medium supplemented with 100 μM TAT-Gap19 (Genosphere Biotechnologies, Paris, France) to block the Cx43 hemichannels. For fractionated irradiation, cells were refreshed with 150 μl medium/well. At different time points after irradiation (1, 6 and 72 h), 1:5 ATP assay mix dissolved in ATP mix dilution buffer (Sigma-Aldrich Co. LCC, Diegem, Belgium) was added to each well. Extracellular ATP release was assessed by measuring the luminescence signal received after oxidation of luciferin and ATP to oxyluciferin and AMP using the CLARIOstar® microplate reader (BMG Labtech, Temse, Belgium). Experiments were corrected for baseline ATP signal in medium in the absence or presence of TAT-Gap19.

Cx43 hemichannels [2] = target: T1, Cx43 hemichannels; experiment: Extracellular ATP release after irradiation, TIME cells; type: cell-based
Method: as §1

TICAE cells [3] = experiment: Intracellular ROS, CM-H2DCFDA IncuCyte live cell imaging, TICAE cells; type: cell-based, human; conditions: 100 μM TAT-Gap19, 0.1 and 5 Gy, 45 min p.i.
Method: In order to further assess intracellular ROS production, IncuCyte live cell imaging was used to have fast imaging in large number of replicates over multiple time points. TICAE and TIME cells were seeded in 96-well plate in 16 replicates at a density of 10000 cells/well. Three days later, cells reached 100% confluence. At 30 minutes before irradiation, a fresh MesoEndo Cell Growth Medium without phenol red (Sigma-Aldrich Co. LCC, Diegem, Belgium) supplemented with 10 μmol/L of the CM-H2DCFDA dye (Sigma-Aldrich Co. LCC, Diegem, Belgium) was added to the cells, with or without 100 μM TAT-Gap19 (Genosphere Biotechnologies, Paris, France). Fluorescence signals were measured at 45 min, 2 h and 3 h after irradiation (CM-H2DCFDA dye became saturated due to photoactivaton, and leaked outside the cells after this time) using the IncuCyte ZOOM® system (Essen BioScience, Ann Arbor, Mich., USA), 10× objective and FITC filter. […] Images were analysed making use of the software package provided by the manufacturer; we used a training set of images from different doses to define the image processing procedure. The so called Top-Hat background subtraction method was applied by measuring the radius of the fluorescence object (30 μm), and adjust a threshold of 1.5 (above the local background fluorescent intensity level), as described in IncuCyte™ Background Fluorescence Technical Note. […]

TIME cells = experiment: Cytokine detection (Magnetic Luminex) in supernatant after irradiation, TIME cells; type: cell-based, human
Method: (§2) TICAE and TIME cells were seeded in a 6-well plate at a density of 2.5×10^5 cells/well in 5 to 6 biological replicates. Two to three days later, cells reached 100% confluence. At 30 minutes before X-ray exposure, cells were refreshed with medium with or without 100 μM TAT-Gap19 (Genosphere Biotechnologies, Paris, France). At 24 h, 48 h, 72 h and 7 d after irradiation, the supernatant was collected. Medium was changed only for the 7 d time point experiment at the fourth day with fresh medium alone or with medium supplemented with 100 μM TAT-Gap19. For the simultaneous detection of multiple cytokines in the supernatants, the Magnetic Luminex® Assay (R&D systems, Minneapolis, […]) was used following manufacturer's instructions. Briefly, supernatants, standards and microparticles were incubated into a 96-well plate which was pre-coated with cytokine-specific antibodies. The immobilized antibodies were able to bind the cytokines of interest after 2 h incubation, then the plate was washed and incubation with a biotinylated antibody cocktail specific to the cytokines of interest was performed for 1 h. A second wash was performed to remove the unbound biotinylated antibodies. Further, a streptavidin-phycoerythrin conjugate was added to each well to bind to the biotinylated antibodies. After a final wash, the microparticles were resuspended in buffer and read using the Luminex® MAGPIX Analyzer (R&D systems, Minneapolis, […]).
In order to normalize to cell number, DAPI staining was performed for the 48 h after irradiation time point. Briefly, cells were washed with phosphate buffered saline (PBS) and fixed with 4% paraformaldehyde (PFA) for 15 minutes at room temperature. Afterwards, the cells were washed with PBS and stained with 1 μg/mL 4′,6-Diamidine-2′-phenylindole (DAPI) dissolved in 1×TBST, 0.005 g/v % TSA blocking powder (PerkinElmer, FP1012) (TNB). After one hour, cells were washed with PBS and DAPI signals were visualized with the Nikon Eclipse Ti automated inverted wide-field epifluorescence microscope equipped with a 5× magnification (Plan Fluor, numerical aperture 0.6) dry objective and a Nikon IE2000-E camera controlled by the MS Elements software. The intensity of the DAPI signals was determined with the FIJI software. Cell count for 24 h after irradiation experiment was performed by Moxi Z Mini Automated Cell Counter (ORFLO Technologies, Ketchum, Id., USA) after trypsinization. For the 72 h and 7 d post-irradiation cell counts, we used IncuCyte ZOOM™ phase contrast imaging based on 49 images taken per well with the 10× objective.

TICAE cells [4] = experiment: IGFBP-7 and GDF-15 multiplex-based assays, TICAE cells; type: cell-based, human; conditions: 7 d p.i.
Method: as §2

[5] = 100 μM TAT-Gap19, fractionated irradiation 0.1 and 5 Gy, 72 h p.i.

T1 sequence (P17302 whole entry): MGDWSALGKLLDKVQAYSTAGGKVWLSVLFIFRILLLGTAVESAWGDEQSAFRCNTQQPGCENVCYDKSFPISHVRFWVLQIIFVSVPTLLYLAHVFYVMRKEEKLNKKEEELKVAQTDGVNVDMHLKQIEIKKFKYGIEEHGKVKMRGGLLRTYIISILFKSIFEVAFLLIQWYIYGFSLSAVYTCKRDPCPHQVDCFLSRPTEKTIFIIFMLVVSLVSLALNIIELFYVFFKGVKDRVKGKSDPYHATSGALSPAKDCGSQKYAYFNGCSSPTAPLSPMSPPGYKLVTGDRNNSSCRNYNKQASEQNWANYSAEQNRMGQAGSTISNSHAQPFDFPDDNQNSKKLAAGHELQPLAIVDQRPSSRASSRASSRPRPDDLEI

Substance: TAT-Gap19: connexin mimetic peptide, amino-acids 128-136 of the CL of Cx43 (SEQ ID NO: 2), Gap19 linked to TAT sequence; Cx43 hemichannel inhibitor (YGRKKRRQRRRKQIEIKKFK)
- radiation-induced ATP release (Cx43 hemichannels [1]; [5]): significantly inhibited the 5 Gy responses only
- radiation-induced ATP release (Cx43 hemichannels [1]; 100 μM TAT-Gap19, single 0.1 and 5 Gy, 1 h p.i.): no inhibition was observed
- radiation-induced ATP release (Cx43 hemichannels [1]; 100 μM TAT-Gap19, single 5 Gy, all cases except 1 h p.i. (6 h, 72 h)): significantly reduced the ATP release
- radiation-induced ATP release (Cx43 hemichannels [2]; [5]): significantly inhibited the 5 Gy responses only
- radiation-induced ATP release (Cx43 hemichannels [2]; 100 μM TAT-Gap19, single 0.1 Gy, 1 h p.i.): no inhibition was observed
- radiation-induced ATP release (Cx43 hemichannels [2]; 100 μM TAT-Gap19, single 0.1 and 5 Gy, 1, 6, 72 h p.i., most cases): significantly inhibited the radiation-induced ATP release
- ROS production (IncuCyte) (TICAE cells [3]): significantly reduced ROS production at both doses
- E-selectin readout (TIME cells; 100 μM TAT-Gap19, 0.1 Gy): decreased
- IL-6 readout (TIME cells; 100 μM TAT-Gap19, 0.1 Gy): decreased
- IL-8 readout (TIME cells; 100 μM TAT-Gap19, 0.1 Gy): decreased
- PECAM-1 readout (TIME cells; 100 μM TAT-Gap19, 0.1 Gy): decreased
- TNF-α readout (TIME cells; 100 μM TAT-Gap19, 0.1 Gy): decreased
- VCAM-1 readout (TIME cells; 100 μM TAT-Gap19, 0.1 Gy): decreased
- CRP (radiation-induced increase) (TIME cells; 100 μM TAT-Gap19, 5 Gy, 24 h): significantly reduced the increase
- E-Selectin (radiation-induced increase) (TIME cells; 100 μM TAT-Gap19, 5 Gy, 24 h): significantly reduced the increase
- ICAM-1 (radiation-induced increase) (TIME cells; 100 μM TAT-Gap19, 5 Gy, 24 h): significantly reduced the increase
- IL-1B (radiation-induced increase) (TIME cells; 100 μM TAT-Gap19, 5 Gy, 24 h): significantly reduced the increase
- MCP-1 (radiation-induced increase) (TIME cells; 100 μM TAT-Gap19, 5 Gy, 24 h): significantly reduced the increase
- PECAM-1 (radiation-induced increase) (TIME cells; 100 μM TAT-Gap19, 5 Gy, 24 h): significantly reduced the increase
- TNF-α (radiation-induced increase) (TIME cells; 100 μM TAT-Gap19, 5 Gy, 24 h): significantly reduced the increase
- IL-6 (radiation-induced increase) (TIME cells; 100 μM TAT-Gap19, 5 Gy, 24 h, 48 h and 7 d p.i.): significantly reduced these responses
- Endothelin-1 (radiation-induced increase) (TIME cells; 100 μM TAT-Gap19, 5 Gy, 24 h, 72 h and 7 d p.i.): significantly decreased these responses
- VCAM-1 (radiation-induced increase) (TIME cells; 100 μM TAT-Gap19, 5 Gy, 24 h and 7 d p.i.): significantly reduced these responses
- IL-8 levels (TIME cells; 100 μM TAT-Gap19, 5 Gy, 7 d p.i.): significantly decreased IL-8 levels
- Endothelin-1 readout (TIME cells; 100 μM TAT-Gap19, control and 0.1 Gy): decreased
- IL-6 readout (TIME cells; 100 μM TAT-Gap19, control and 0.1 Gy, 7 d p.i.): increased
- GDF-15 (TICAE cells [4]; 100 μM TAT-Gap19, 0, 0.1 and 5 Gy): significantly inhibited these responses in all treated conditions
- IGFBP-7 (TICAE cells [4]; 100 μM TAT-Gap19, 0.1 Gy): acted in a significantly inhibitory way
- IGFBP-7 (radiation-induced increase) (TICAE cells [4]; 100 μM TAT-Gap19, 5 Gy): not inhibited
